From patent US10369153B2, “Pyrrolopyrimidine compounds and uses thereof” (HUTCHISON MEDIPHARMA LIMITED, priority 2010, dated 2019)

Key:
[1] = target: Recombinant human JAK1 catalytic domain (Homo sapiens (Human), UniProt P23458); test: JAK1 kinase assay (Z'-LYTE, Tyr 6 Peptide); assay type: biochemical; details: 0.3 uM concentration, read-out: inhibition percentage (IR %)
Experimental: JAK1/2/3 kinase assay are performed in vitro using Kit-Tyr 6 Peptide (Invitrogen, Cat. No. PV4122). TYK2 kinase assay are performed in vitro using Z′-LYTE™ Kinase Assay Kit-Tyr 3 Peptide (Invitrogen, Cat. No. PV3192). […] All compounds are initially tested at 8 different concentrations (1 μM down to 0.0003 μM) using a 1:3 serial dilution scheme.

[2] = system: IL-6-induced STAT3 phosphorylation; test: IL-6-induced STAT3 phosphorylation in HepG2 cells; assay type: cell-based; details: Homo sapiens, IL-6 stimulation, read-out: pSTAT3 IC50
Experimental: For the determination of IL-6-induced STAT3 phosphorylation, HepG2 cells (SIBS) are seeded in 96 well plates at 5.4×10^3 cells per well in Serum Free DMEM media overnight and incubated in the presence or absence of various concentrations of diluted compound for 30 min at 37° C., 5% CO2. Cells were stimulated by adding 10 ng/ml human recombinant IL-6 to each well for 15 minutes at 37° C., 5% CO2. Cells are then fixed in 2% paraformaldehyde for 45 minutes at room temperature and incubated in ice-cold methanol for 30 minutes. After washing in PBS, cells are incubated with rabbit anti-phospho-STAT3 (Y705) (Cell Signaling Technologies, 1:1000 in antibody dilution solution) primary antibody overnight at 4° C. Goat anti-rabbit IgG Alexa 488 (Invitrogen, 1:1,000 dilution in PBS) secondary antibody is added for 90 minutes prior to PBS washes. Cells are counted following incubation in a 7.5 uM propidium iodide, 100 μg/ml RNaseA, PBS solution for 60 minutes in the dark. Plates are read on an Acumen X3 instrument (TPP Labtech).
(§1) Percent inhibition is calculated using the following formula: Inhibition (%)=100−((inhibitor treatment−cell)/(stimulator−cell))×100 […]

[3] = system: IL-3-induced STAT5 phosphorylation; test: IL-3-induced STAT5 phosphorylation in TF-1 cells; assay type: cell-based; details: Homo sapiens, IL-3 stimulation, read-out: pSTAT5 IC50
Experimental: For the determination of IL-3-induced STAT5 phosphorylation, TF-1 cells (ATCC) are plated in 96 well plates at 1×10^4 cells per well in 10% FBS RPMI-1640 media at 37° C., 5% CO2 for 3 hours. Cells were incubated in the presence or absence of various concentrations of diluted compound for 30 min at 37° C., 5% CO2. Cells were stimulated by adding 10 ng/ml human recombinant IL-3 to each well for 30 minutes at 37° C., 5% CO2. Cells are then fixed in 2% paraformaldehyde for 45 minutes at room temperature and incubated in ice-cold methanol for 30 minutes. After washing in PBS, cells are incubated with rabbit anti-phospho-STAT5 (Y694) (Cell Signaling Technologies, 1:1000 in antibody dilution solution) primary antibody overnight at 4° C. Goat anti-rabbit IgG Alexa 488 (Invitrogen, 1:1,000 dilution in PBS) secondary antibody is added for 90 minutes prior to PBS washes. Cells are counted following incubation in a 7.5 uM propidium iodide, 100 μg/ml RNaseA, PBS solution for 60 minutes in the dark. Plates are read on an Acumen X3 instrument (TPP Labtech).
as §1

Chain of Recombinant human JAK1 catalytic domain (P23458 875-1153): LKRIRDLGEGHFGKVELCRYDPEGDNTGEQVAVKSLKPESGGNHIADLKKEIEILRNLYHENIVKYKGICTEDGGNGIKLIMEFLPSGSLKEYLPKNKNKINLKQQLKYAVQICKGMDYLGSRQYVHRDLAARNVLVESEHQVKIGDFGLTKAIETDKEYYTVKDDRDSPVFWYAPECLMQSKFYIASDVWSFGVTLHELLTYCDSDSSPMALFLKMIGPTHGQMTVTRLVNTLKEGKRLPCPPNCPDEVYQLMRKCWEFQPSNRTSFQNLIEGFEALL

Structure (SMILES)	inhibition at 0.3 µM [1]	IC50 [2]	IC50 [3]
CN(c1ccc(C(=O)N[C@@H](CO)c2ccccc2)cn1)[C@@H]1CCN(c2ncnc3[nH]ccc23)C1 [Compound 176]	50 to 100%		
CN(c1ccc(C(=O)Nc2nccs2)cn1)[C@@H]1CCN(c2ncnc3[nH]ccc23)C1 [Compound 199]	50 to 100%	0.05 µM	7.55 µM
CN(C(=O)c1ccc(N(C)[C@@H]2CCN(c3ncnc4[nH]ccc34)C2)nc1)[C@@H](CO)c1ccccc1 [Compound 200]	20 to 50%		
